Where a SMILES comes first, the peptide text is derived from it. [ ]: non-standard residue; d: D form. d2Thi = N[C@H](Cc1cccs1)C(=O)O; Nle = CCCC[C@H](N)C(=O)O
assay: Pharmacokinetics in rats after intravenous bolus injection (systemic clearance); type: in vivo; settings: rat, plasma, 0.1 mg FB/kg, adult male Sprague-Dawley rats, i.v. bolus, dose 0.10 mg FB/kg, read-out: CL (ml/kg/min) Average
How it was run: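 Systemic clearance from noncompartmental analysis as dose per kg over trapezoidal AUC extrapolated to infinity, mean and SD across animals. Plasma (K2EDTA) levels by LC/MS/MS after single IV jugular-vein bolus, 0.1-1.0 mg/kg, in 3-4 cannulated male Sprague-Dawley rats.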

With `CCCC[C@H](NC(=O)[C@H](CCC(=O)O)NC(=O)[C@H](CC(=O)O)NC(=O)[C@H](CO)NC(=O)[C@H](Cc1ccccc1)NC(=O)[C@H](CO)NC(=O)CNC(=O)[C@H](CC(=O)O)NC(=O)CNC(=O)[C@@H](N)Cc1cnc[nH]1)C(=O)N[C@H](Cc1ccccc1)C(=O)N[C@H](C(=O)N[C@H](C(=O)N[C@@H](CC(C)C)C(=O)N[C@@H](CC(=O)O)C(=O)N[C@@H](CC(C)C)C(=O)N[C@@H](CC(C)C)C(=O)N[C@@H](C)C(=O)N[C@@H](C)C(=O)N[C@@H](CCCNC(=N)N)C(=O)N[C@@H](CC(=O)O)C(=O)N[C@@H](Cc1ccccc1)C(=O)N[C@H](C(=O)N[C@@H](CC(N)=O)C(=O)N[C@@H](Cc1c[nH]c2ccccc12)C(=O)N[C@@H](CC(C)C)C(=O)N[C@H](C(=O)N[C@@H](CCC(N)=O)C(=O)N[C@H](C(=O)N[C@@H](CCCCN)C(=O)N[C@H](C(=O)N[C@H](C(=O)N[C@@H](CC(=O)O)C(N)=O)[C@@H](C)O)[C@@H](C)CC)[C@@H](C)O)[C@@H](C)CC)[C@@H](C)CC)[C@@H](C)CC)[C@@H](C)O` [Compound 51, [Gly2,Nle10,D-Phe11,Leu16] hGLP-2(1-33)-NH2] (H-HGDGSFSDE[Nle][dF]TILDLLAARDFINWLIQTKITD-NH2) the clearance was 0.2 mL/kg/min.

same assay, conditions: rat, plasma, 0.2 mg FB/kg, adult male Sprague-Dawley rats, i.v. bolus, dose 0.20 mg FB/kg, read-out: CL (ml/kg/min) Average

First: CCCC[C@H](NC(=O)[C@H](CCC(=O)O)NC(=O)[C@H](CC(=O)O)NC(=O)[C@H](CO)NC(=O)[C@H](Cc1ccccc1)NC(=O)[C@H](CO)NC(=O)CNC(=O)[C@H](CC(=O)O)NC(=O)CNC(=O)[C@@H](N)Cc1c[nH]cn1)C(=O)N[C@H](Cc1ccccc1)C(=O)N[C@H](C(=O)N[C@H](C(=O)N[C@@H](CC(C)C)C(=O)N[C@@H](CC(=O)O)C(=O)N[C@@H](Cc1ccccc1)C(=O)N[C@@H](CC(C)C)C(=O)N[C@@H](C)C(=O)N[C@@H](C)C(=O)N[C@@H](CCCNC(=N)N)C(=O)N[C@@H](CC(=O)O)C(=O)N[C@@H](Cc1ccccc1)C(=O)N[C@H](C(=O)N[C@@H](CC(N)=O)C(=O)N[C@@H](Cc1c[nH]c2ccccc12)C(=O)N[C@@H](CC(C)C)C(=O)N[C@H](C(=O)N[C@@H](CCC(N)=O)C(=O)N[C@H](C(=O)N[C@@H](CCCCN)C(N)=O)[C@@H](C)O)[C@@H](C)CC)[C@@H](C)CC)[C@@H](C)CC)[C@@H](C)O [Compound 47, [Gly2,Nle10,D-Phe11,Phe16] hGLP-2 (1-30)-NH2] (H-HGDGSFSDE[Nle][dF]TILDFLAARDFINWLIQTK-NH2)
Second: CCCC[C@H](NC(=O)[C@H](CCC(=O)O)NC(=O)[C@H](CC(=O)O)NC(=O)[C@H](CO)NC(=O)[C@H](Cc1ccccc1)NC(=O)[C@H](CO)NC(=O)CNC(=O)[C@H](CC(=O)O)NC(=O)CNC(=O)[C@@H](N)Cc1c[nH]cn1)C(=O)N[C@H](Cc1ccccc1)C(=O)N[C@H](C(=O)N[C@H](C(=O)N[C@@H](CC(C)C)C(=O)N[C@@H](CC(=O)O)C(=O)N[C@@H](Cc1ccc(O)cc1)C(=O)N[C@@H](CC(C)C)C(=O)N[C@@H](C)C(=O)N[C@@H](C)C(=O)N[C@@H](CCCNC(=N)N)C(=O)N[C@@H](CC(=O)O)C(=O)N[C@@H](Cc1ccccc1)C(=O)N[C@H](C(=O)N[C@@H](CC(N)=O)C(=O)N[C@@H](Cc1c[nH]c2ccccc12)C(=O)N[C@@H](CC(C)C)C(=O)N[C@H](C(=O)N[C@@H](CCC(N)=O)C(=O)N[C@H](C(=O)N[C@@H](CCCCN)C(N)=O)[C@@H](C)O)[C@@H](C)CC)[C@@H](C)CC)[C@@H](C)CC)[C@@H](C)O [Compound 49, [Gly2,Nle10,D-Phe11,Tyr16] hGLP-2 (1-30)-NH2] (H-HGDGSFSDE[Nle][dF]TILDYLAARDFINWLIQTK-NH2)
The clearance of the first is 1.6-fold lower: 0.3 mL/kg/min for the first, 0.48 mL/kg/min for the second.

`CCCC[C@H](NC(=O)[C@H](CCC(=O)O)NC(=O)[C@H](CC(=O)O)NC(=O)[C@H](CO)NC(=O)[C@H](Cc1ccccc1)NC(=O)[C@H](CO)NC(=O)CNC(=O)[C@H](CC(=O)O)NC(=O)CNC(=O)[C@@H](N)Cc1cnc[nH]1)C(=O)N[C@H](Cc1ccccc1)C(=O)N[C@H](C(=O)N[C@H](C(=O)N[C@@H](CC(C)C)C(=O)N[C@@H](CC(=O)O)C(=O)N[C@@H](CC(C)C)C(=O)N[C@@H](CC(C)C)C(=O)N[C@@H](C)C(=O)N[C@@H](C)C(=O)N[C@@H](CCCNC(=N)N)C(=O)N[C@@H](CC(=O)O)C(=O)N[C@@H](Cc1ccccc1)C(=O)N[C@H](C(=O)N[C@@H](CC(N)=O)C(=O)N[C@@H](Cc1c[nH]c2ccccc12)C(=O)N[C@@H](CC(C)C)C(=O)N[C@H](C(=O)N[C@@H](CCC(N)=O)C(=O)N[C@H](C(=O)N[C@@H](CCCCN)C(N)=O)[C@@H](C)O)[C@@H](C)CC)[C@@H](C)CC)[C@@H](C)CC)[C@@H](C)O` [Compound 48, [Gly2,Nle10,D-Phe11,Leu16] hGLP-2 (1-30)-NH2] (H-HGDGSFSDE[Nle][dF]TILDLLAARDFINWLIQTK-NH2) and `CCCC[C@H](NC(=O)[C@H](CCC(=O)O)NC(=O)[C@H](CC(=O)O)NC(=O)[C@H](CO)NC(=O)[C@H](Cc1ccccc1)NC(=O)[C@H](CO)NC(=O)CNC(=O)[C@H](CC(=O)O)NC(=O)CNC(=O)[C@@H](N)Cc1c[nH]cn1)C(=O)N[C@H](Cc1ccccc1)C(=O)N[C@H](C(=O)N[C@H](C(=O)N[C@@H](CC(C)C)C(=O)N[C@@H](CC(=O)O)C(=O)N[C@@H](CC(C)C)C(=O)N[C@@H](CC(C)C)C(=O)N[C@@H](C)C(=O)N[C@H](C(=O)N[C@@H](CCCNC(=N)N)C(=O)N[C@@H](CC(=O)O)C(=O)N[C@@H](Cc1ccccc1)C(=O)N[C@H](C(=O)N[C@@H](CC(N)=O)C(=O)N[C@@H](Cc1c[nH]c2ccccc12)C(=O)N[C@@H](CC(C)C)C(=O)N[C@H](C(=O)N[C@@H](CCC(N)=O)C(=O)N[C@H](C(=O)N[C@@H](CCCCN)C(N)=O)[C@@H](C)O)[C@@H](C)CC)[C@@H](C)CC)[C@@H](C)O)[C@@H](C)CC)[C@@H](C)O` [Compound 52, [Gly2,Nle10,D-Phe11,Leu16,Thr19] hGLP-2(1-30)-NH2] (H-HGDGSFSDE[Nle][dF]TILDLLATRDFINWLIQTK-NH2) are within 1.5-fold of each other in clearance: 0.37 mL/kg/min for the first, 0.49 mL/kg/min for the second.

First: CCCC[C@H](NC(=O)[C@H](CCC(=O)O)NC(=O)[C@H](CC(=O)O)NC(=O)[C@H](CO)NC(=O)[C@H](Cc1ccccc1)NC(=O)[C@H](CO)NC(=O)CNC(=O)[C@H](CC(=O)O)NC(=O)CNC(=O)[C@@H](N)Cc1c[nH]cn1)C(=O)N[C@H](Cc1cccs1)C(=O)N[C@H](C(=O)N[C@H](C(=O)N[C@@H](CC(C)C)C(=O)N[C@@H](CC(=O)O)C(=O)N[C@@H](Cc1ccc(O)cc1)C(=O)N[C@@H](CC(C)C)C(=O)N[C@@H](C)C(=O)N[C@@H](C)C(=O)N[C@@H](CCCNC(=N)N)C(=O)N[C@@H](CC(=O)O)C(=O)N[C@@H](Cc1ccccc1)C(=O)N[C@H](C(=O)N[C@@H](CC(N)=O)C(=O)N[C@@H](Cc1c[nH]c2ccccc12)C(=O)N[C@@H](CC(C)C)C(=O)N[C@H](C(=O)N[C@@H](CCC(N)=O)C(=O)N[C@H](C(=O)N[C@@H](CCCCN)C(N)=O)[C@@H](C)O)[C@@H](C)CC)[C@@H](C)CC)[C@@H](C)CC)[C@@H](C)O [Compound 50, [Gly2,Nle10,D-Thi11,Tyr16] hGLP-2 (1-30)-NH2] (H-HGDGSFSDE[Nle][d2Thi]TILDYLAARDFINWLIQTK-NH2)
Second: CCCC[C@H](NC(=O)[C@H](CCC(=O)O)NC(=O)[C@H](CC(=O)O)NC(=O)[C@H](CO)NC(=O)[C@H](Cc1ccccc1)NC(=O)[C@H](CO)NC(=O)CNC(=O)[C@H](CC(=O)O)NC(=O)CNC(=O)[C@@H](N)Cc1cnc[nH]1)C(=O)N[C@H](Cc1ccccc1)C(=O)N[C@H](C(=O)N[C@H](C(=O)N[C@@H](CC(C)C)C(=O)N[C@@H](CC(=O)O)C(=O)N[C@@H](CC(C)C)C(=O)N[C@@H](CC(C)C)C(=O)N[C@@H](C)C(=O)N[C@@H](C)C(=O)N[C@@H](CCCNC(=N)N)C(=O)N[C@@H](CC(=O)O)C(=O)N[C@@H](Cc1ccccc1)C(=O)N[C@H](C(=O)N[C@@H](CC(N)=O)C(=O)N[C@@H](Cc1c[nH]c2ccccc12)C(=O)N[C@@H](CC(C)C)C(=O)N[C@H](C(=O)N[C@@H](CCC(N)=O)C(=O)N[C@H](C(=O)N[C@@H](CCCCN)C(=O)N[C@H](C(=O)N[C@H](C(=O)N[C@@H](CC(=O)O)C(N)=O)[C@@H](C)O)[C@@H](C)CC)[C@@H](C)O)[C@@H](C)CC)[C@@H](C)CC)[C@@H](C)CC)[C@@H](C)O [Compound 51, [Gly2,Nle10,D-Phe11,Leu16] hGLP-2(1-33)-NH2] (H-HGDGSFSDE[Nle][dF]TILDLLAARDFINWLIQTKITD-NH2)
The clearance of the first is 1.9-fold higher: 0.52 mL/kg/min for the first, 0.27 mL/kg/min for the second.

— patent publication US8580918B2, “Peptidic GLP-2 agonists” (Ferring B.V., priority 2009, dated 2013)
